According to paper PMC5996347, “2-Mercapto-Quinazolinones as Inhibitors of Type II NADH Dehydrogenase and Mycobacterium tuberculosis: Structure–Activity Relationships, Mechanism of Action and Absorption, Distribution, Metabolism, and Excretion Characterization” (ACS Infectious Diseases, 2018):
Converted amounts (≈) assume the structure as drawn. Where two headings read alike, the source gives them in different places.

Experiments:
[1] = target: T1, recombinant MBP-MtNdh (MTb NDH-2) (Mycobacterium tuberculosis, UniProt P95160); experiment: Ndh activity assay (NADH oxidation at 340 nm); type: biochemical; conditions: NADH 250 μM, Q2 40 μM; mean ± SD, Figure 6 inset; read-out: IC50 against MBP-MtNdh
T1 construct: The ORF corresponding to Rv1854c was codon optimized for E. coli; made in house; host or cells: E. coli BL21 (DE3) pLysS

[2] = target: T1, recombinant MBP-MtNdh (MTb NDH-2); design: method as in PMID 15767566; conditions: range covering Figure 6 and literature; read-out: IC50 against NDH-2 (text, chlorpromazine); cited from earlier work
M. tuberculosis H37Rv [3] = experiment: H37Rv MIC in GAST medium; type: cell-based, Mycobacterium tuberculosis
M. tuberculosis H37Rv [4] = experiment: microbe, parasite or virus in culture; type: cell-based; conditions: Mycobacterium tuberculosis
[5] = tested on: cyd knockout strain (cydC::aph); type: cell-based, Mycobacterium tuberculosis
piniBAC reporter strain = type: cell-based, Mycobacterium tuberculosis; conditions: upregulation of iniBAC promoter
physchem [6] = type: physicochemical; conditions: pH 7.4
Method: The chromatographic hydrophobicity index (CHI) was determined according the method previously described.[43],[44] Briefly, test compounds were prepared as 0.5 mM solutions in 50:50 acetonitrile/water and analyzed by reversed-phase HPLC-UV (wavelength 254 nm) using a Phenomenex Luna C18 100 Å, 150 × 4.6 mm, 5 μm column with a gradient of aqueous phase (50 mM ammonium acetate (pH 7.4)) and mobile phase (acetonitrile). By plotting the retention time of a set of reference compounds against known CHI values, the CHI value of test compounds was calculated according to their retention time.

[7] = type: in vitro ADME; conditions: female, CD1, mouse, 0.5 μM, pH 7.4
Method: Test compound (0.5 μM) was incubated with female CD1 mouse liver microsomes (Xenotech LLC; 0.5 mg/mL, 50 mM potassium phosphate buffer, pH 7.4), and the reaction started with addition of excess NADPH (8 mg/mL, 50 mM potassium phosphate buffer, pH 7.4). Immediately, at time zero, and then at 3, 6, 9, 15, and 30 min, an aliquot (50 μL) of the incubation mixture was removed and mixed with acetonitrile (100 μL) to stop the reaction. Internal standard was added to all samples; the samples were centrifuged to sediment precipitated protein, and the plates were then sealed prior to UPLC-MS/MS analysis using a Quattro Premier XE (Waters Corporation, USA). XLfit (IDBS, UK) was used to calculate the exponential decay and consequently the rate constant (k) from the ratio of peak area of test compound to internal standard at each time point. The rate of intrinsic clearance (Cli) of each test compound was then calculated using the following calculation. [drawing 1] where V (mL/mg protein) is the incubation volume/mg protein added and microsomal protein yield is taken as 52.5 mg protein/g liver. Verapamil (0.5 μM) was used as a positive control to confirm acceptable assay performance.

[8] = Calculated properties (StarDrop)
physchem [9] = type: physicochemical; conditions: for solubility kinetic: water, kinetic from dmso stock
Method: The aqueous solubility of the test compounds was measured using laser nephelometry. Compounds were subject to serial dilution from 10 to 0.5 mM in DMSO. An aliquot was then mixed with Milli-Q water to obtain an aqueous dilution plate with a final concentration range of 250–12 μM, with a final DMSO concentration of 2.5%. Triplicate aliquots were transferred to a flat bottomed polystyrene plate which was immediately read on the NEPHELOstar (BMG Lab Technologies). The amount of laser scatter caused by insoluble particulates (relative nephelometry units, RNU) was plotted against compound concentration using a segmental regression fit, with the point of inflection being quoted as the compounds aqueous solubility (μM).

in vitro = in vitro ADME; conditions: PAMPA, pH 7.4
Method: The permeability was performed using a 96-well precoated BD Gentest PAMPA plate (BD Biosciences, U.K.). Each well was divided into two chambers: donor and acceptor, separated by a lipid-oil-lipid trilayer constructed in a porous filter. The effective permeability, Pe, of the compound was measured at pH 7.4. Stock solutions (5 mM) of the compound were prepared in DMSO. The compound was then further diluted to 10 μM in phosphate buffered saline at pH 7.4. […] The compound dissolved in phosphate buffered saline was then added to the donor side of the membrane, and phosphate buffered saline without compound was added to the acceptor side. The PAMPA plate was left at room temperature for 5 h; after which time, an aliquot (100 μL) was then removed from both acceptor and donor compartments and mixed with acetonitrile (80 μL) containing an internal standard: donepezil at 50 ng/mL). The samples were centrifuged (10 min, 5 °C, 3270g) to sediment precipitated protein and sealed prior to UPLC-MS/MS analysis using a Quattro Premier XE (Waters Corp, USA). Pe was calculated as shown in the below equation. [drawing 2] where CA(t) = peak area of compound present in acceptor well at time (t) = 18 000 s; Cequi = [CD(t) × VD + CA(t) × VA]/(VD + VA); A = filter area; VD = donor well volume; VA = acceptor well volume; t = incubation time; CD(t) = peak area of compound present in donor well at time (t) = 18 000 s. Recovery of compound from donor and acceptor wells was calculated, and data was only accepted when recovery exceeded 70%.

Mouse pharmacokinetics = type: in vivo, female C57Bl/6 mice; conditions: for AUC(0-t) / Cmax: 10 mg/kg; for AUC: whole blood, single rising oral dose
Method: Test compound was dosed as a bolus solution intravenously at 3 mg free base/kg (dose volume: 5 mL/kg; dose vehicle: 10% DMSO; 40% PEG400; 50% saline) to female C57Bl/6 mice (n = 3) or dosed orally by gavage as a suspension at 10 or at 5, 30, or 100 mg free base/kg (dose volume: 10 mL/kg; dose vehicle: 1.0% carboxy methyl cellulose) to female C57Bl/6 mice (n = 3/dose level). Blood samples were taken from each mouse tail vein at predetermined time points postdose, mixed with nine volumes of distilled water, and stored frozen until UPLC-MS/MS analysis. Pharmacokinetic parameters were derived from the blood concentration time curve using PK Solutions software v 2.0 (Summit Research Services, USA).

[10] = type: in vitro ADME; conditions: mouse, plasma
Method: In brief, a 96-well equilibrium dialysis apparatus was used to determine the free fraction in plasma for each compound (HT Dialysis LLC, Gales Ferry, CT). Membranes (12–14 kDaA cutoff) were conditioned in deionized water for 60 min, followed by conditioning in 80:20 deionized water/ethanol overnight and then rinsed in water and isotonic buffer before use. Mouse plasma from appropriate species was removed from the freezer and allowed to thaw on the day of experiment. Thawed plasma was then centrifuged (Allegra X12-R, Beckman Coulter, USA) and spiked with test compound (final concentration 10 μg/mL), and 150 μL aliquots (n = 3 replicate determinations) were loaded into the 96-well equilibrium dialysis plate. Dialysis against isotonic buffer (150 μL) was carried out for 5 h in a temperature controlled incubator at ca. 37 °C (Barworld scientific Ltd., UK) using an orbital microplate shaker at 100 rpm (Barworld scientific Ltd., UK). At the end of the incubation period, 50 μL aliquots of plasma or buffer were transferred into a 96-well deep plate and the composition in each well was balanced with control fluid (50 μL), such that the volume of buffer to plasma is the same. Sample extraction was performed by the addition of 200 μL of acetonitrile containing an appropriate internal standard. Samples were allowed to mix for 1 min and then centrifuged at 3000 rpm in 96-well blocks for 15 min (Allegra X12-R, Beckman Coulter, USA) after which 150 μL of supernatant was removed to 50 μL of water. All samples were analyzed by UPLC-MS/MS on a Quattro Premier XE Mass Spectrometer (Waters Corporation, USA). The unbound fraction was determined as the ratio of the peak area in buffer to that in plasma.

HepG2 [11] = conditions: human
[12] = mouse liver microsomes
HepG2 [13] = experiment: cells; conditions: Homo sapiens, HepG2, read-out: HepG2 IC50
M. tuberculosis H37Rv [14] = experiment: Extracellular flux analysis (oxygen consumption rate); conditions: 1 at 39 μM, 7 at 45 μM
M. tuberculosis = experiment: microbe, parasite or virus in culture; type: cell-based; conditions: Mycobacterium tuberculosis; read-out: MIC (internal control reference compound)
MTb H37Rv = experiment: Intracellular ATP levels (BacTiter-Glo); conditions: 24 h drug exposure
[15] = Mycobacterium tuberculosis, H37RV, read-out: GAST MIC
[16] = Mycobacterium tuberculosis, H37RV, read-out: GAST MIC in ng/mL
[17] = female, C57Bl/6, mouse, in vivo
[18] = female, C57Bl/6, mouse, in vivo, po

T1 sequence (P95160 whole entry): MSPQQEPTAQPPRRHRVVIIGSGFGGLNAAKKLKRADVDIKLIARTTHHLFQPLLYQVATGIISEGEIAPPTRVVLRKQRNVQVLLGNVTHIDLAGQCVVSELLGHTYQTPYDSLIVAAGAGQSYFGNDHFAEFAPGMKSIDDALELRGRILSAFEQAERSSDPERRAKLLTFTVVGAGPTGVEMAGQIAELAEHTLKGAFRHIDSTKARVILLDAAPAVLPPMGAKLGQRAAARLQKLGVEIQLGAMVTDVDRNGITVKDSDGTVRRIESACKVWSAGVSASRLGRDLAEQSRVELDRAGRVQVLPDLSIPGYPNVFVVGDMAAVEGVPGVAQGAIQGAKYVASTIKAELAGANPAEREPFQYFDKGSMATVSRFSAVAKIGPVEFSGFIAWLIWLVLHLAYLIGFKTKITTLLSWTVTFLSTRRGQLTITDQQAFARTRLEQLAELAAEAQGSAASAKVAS

## CN(C)CCCN1c2ccccc2Sc2ccc(Cl)cc21 [CPZ, chlorpromazine, reference compound]
[1]
  IC50: 25 ± 2 µM
[2]
  IC50: 10 to 25 µM

## O=C(CSc1nc2ccccc2c(=O)[nH]1)NCc1ccccc1 [Compound 2]
M. tuberculosis H37Rv [3]; [15]
  MIC: 5.9 µM
M. tuberculosis H37Rv [4]; read-out: 7H9-ADC MIC
  MIC: 4.5 µM
[5]
  Cyd KO reporter: Not likely QcrB inhibitor
piniBAC reporter strain
  pini-LUC reporter: Not likely cell wall inhibitor
Physchem [6]
  chromatographic logD: 1.5
[7]
  Microsomal Cli, mouse: Mouse 1.6 mL/min/g
[8]
  PFI: 4.3
Physchem [9]
  solubility kinetic: 109 µM (≈ 35.5 µg/mL)
[1]
  IC50: 0.51 ± 0.05 µM

## O=C(CSc1nc2ccccc2c(=O)[nH]1)NC1CCC(F)(F)CC1 [Compound 7, N-(4,4-Difluorocyclohexyl)-2-((4-oxo-3,4-dihydroquinazolin-2-yl)thio)acetamide]
M. tuberculosis H37Rv [3]; [15]
  MIC: 0.4 µM
M. tuberculosis H37Rv [3]; [16]
  MIC: 141 ng/mL
M. tuberculosis H37Rv [4]; read-out: 7H9-ADC MIC
  MIC: 0.4 µM
M. tuberculosis H37Rv [4]; read-out: 7H9-ADC MIC in ng/mL
  MIC: 141 ng/mL
Physchem [6]
  chromatographic logD: 1.5
Physchem [9]
  Kinetic solubility: 111 (HCl salt) μM
  solubility kinetic: 105 µM (≈ 37.1 µg/mL)
In vitro
  Papp at 5 h, 10 μM: 6.4 ×10⁻⁶ cm/s
Mouse pharmacokinetics; [17]
  Clb: 39 mL/min/kg
  Vd: 1 L/kg
  bioavailability: 29%
Mouse pharmacokinetics; [18]
  AUC(0-t): 1120 ng·h/mL
  Cmax: 399 ng/mL
Mouse pharmacokinetics; female, C57Bl/6, mouse, 5 mg/kg, read-out: AUC at 5 mg/kg oral (converted)
  AUC: 9430 ng·h/mL
Mouse pharmacokinetics; female, C57Bl/6, mouse, 30 mg/kg, read-out: AUC at 30 mg/kg oral (converted)
  AUC: 2190 ng·h/mL
Mouse pharmacokinetics; female, C57Bl/6, mouse, 100 mg/kg, read-out: AUC at 100 mg/kg oral (converted)
  AUC: 2200 ng·h/mL
Mouse pharmacokinetics; female, C57Bl/6, whole blood, C57 mouse PK at 3 iv and 10 po (mg/kg), 1 free base, 7 HCl salt
  half-life: 1.3 h
Mouse pharmacokinetics; mouse, in vivo, po, 100 mg/kg
  Dose linearity (AUC comparison): no dose linearity was observed
[10]
  PPB (% unbound): 13 % unbound
[1]
  IC50: 0.0066 ± 0.004 µM
HepG2 [11]
  HepG2 cytotoxicity (in words): no HepG2 cytotoxicity was observed
Human liver microsomes
  Human microsomal metabolite identification: oxidation of the quinazolinone ring
With and without human liver microsomes
  GSH trapping: adducts formed: GSH adducts 12 and 13, without microsomal activation
[12]
  Mouse microsomal metabolite identification: a small amount of amide bond cleavage as well as oxidation of the quinazolin-4(3H)-one ring
HepG2 [13]
  IC50: > 50 µM
M. tuberculosis H37Rv [14]; CCCP 3 μM, compared to untreated control
  Effect on maximal respiration after CCCP uncoupling: significantly diminished maximal respiration
M. tuberculosis H37Rv [14]; ~45 min, glucose or palmitate
  Effect on basal MTb OCR: minimal effect

## O=C(CSc1nc2ccccc2c(=O)[nH]1)NCC1CCC(F)(F)CC1 [Compound 11, N-((4,4-Difluorocyclohexyl)methyl)-2-((4-oxo-3,4-dihydroquinazolin-2-yl)thio)acetamide]
M. tuberculosis H37Rv [3]; [15]
  MIC: 0.8 µM
M. tuberculosis H37Rv [3]; [16]
  MIC: 294 ng/mL
M. tuberculosis H37Rv [3]; read-out: GAST MIC
  MIC: 0.8 µM
M. tuberculosis H37Rv [4]; read-out: 7H9-ADC MIC
  MIC: 1.1 µM
M. tuberculosis H37Rv [4]; read-out: 7H9-ADC MIC in ng/mL
  MIC: 294 ng/mL
Physchem [6]
  chromatographic logD: 1.6
Physchem [9]
  Kinetic solubility: >250 µM
  solubility kinetic: 250 µM (≈ 91.9 µg/mL)
In vitro
  Papp at 5 h, 10 μM: 6.5 ×10⁻⁶ cm/s
Mouse pharmacokinetics; [18]
  AUC(0-t): 2140 ng·h/mL
  Cmax: 1110 ng/mL
[10]
  PPB (% unbound): 21 % unbound
[1]
  IC50: 0.026 ± 0.006 µM
HepG2 [13]
  IC50: > 50 µM

## NNC(=O)c1ccncc1 [Isoniazid, isoniazid]
M. tuberculosis
  MIC: 0.2 µM (≈ 0.0274 µg/mL)

## COc1nc2ccc(Br)cc2cc1[C@@H](c1ccccc1)[C@@](O)(CCN(C)C)c1cccc2ccccc12 [bedaquiline]
MTb H37Rv
  Cellular ATP levels in MTb: depletion of cellular ATP levels
